From patent US20220183994A1, “DELIVERY DEVICES FOR LOCALIZED DELIVERY OF ANTIMICROBIAL, ANTI-INFLAMMATORY, AND ANTIOXIDANT AGENTS” (priority 2019, published 2022) come the findings set out here.

Read-outs that look alike come from different tables or passages of the source.

Data set [1] is described as follows: Total Antioxidant Capacity Assay (Trolox standard curve, Cu+2 probe). Particulars: 10 mM antioxidant, compared with trolox. The procedure: Activity of antioxidants. […] A standard curve correlating the Trolox concentration to the antioxidant capacity was generated according to manufacturer's protocol. […] Two million 16HBE cells were seeded into each well of a 12-well plate and incubated overnight as described above. […] Finally, the insoluble cell debris was removed by centrifugation and the supernatant analyzed as described above to determine the total antioxidant capacity. All experiments were performed with 4 technical replicates and two biological replicates.

Data set [2] relates to 16HBE cells.
Protocol: Cells were seeded at a density of 25,000 cells/well in a 96-well plate and incubated overnight as described above. […] ALAMARBLUE® test reagent was added to each well, and the plates were incubated as described above. At 8-hour and 24-hour timepoints, absorbance was measured at 570 and 600 nm, normalized to media only controls, and analyzed per manufacturer's instructions. All experiments were performed with 6 technical replicates and 3 biological replicates.
Statistics. All data were analyzed using GraphPad Prism 7 (GraphPad Software, Inc., La Jolla, Calif.). […] Additionally, non-linear regression was used to deduce the lethal dose at median cell viability (LD50) for cell viability assays.
For data set [3], the system named is human bronchial epithelial (16HBE) cells. The data set is described as follows: Cellular ROS/Superoxide Detection Assay in silver-exposed cells. The data set is classed as cell-based. The procedure: Cellular ROS and superoxide levels were measured in 16HBE cells using a Cellular ROS/Superoxide Detection Assay Kit according to manufacturer's recommended protocol. Briefly, cells were seeded at a density of 25,000 cells/well in a black wall/clear bottom 96-well plate and incubated for 24 h as described above. Next, the feeding media was aspirated and cells were incubated with fresh media supplemented with or without 10 mM NAC for 2 h. […] Upon staining, the fluorescence signal from the two fluorescent dyes, green signal from ROS detection probe (Ex/Em=490/525 nm) and orange signal from superoxide detection probe (Ex/Em=550/620 nm), were quantified using a BioTek Instruments Cytation 5 Multimode Reader at 0, 4, 6, 8, and 24 h. […] All experiments were performed with 6 technical replicates and a minimum of 2 biological replicates.

For data set [4], the system named is 16HBE cells. The data set is described as follows: Glucose/lactate (BioProfile analyzer) and metabolite pool size and labeling (GC-MS). The data set is classed as cell-based, human. Here is the method:
Analysis of total metabolite pool size and metabolite labeling patterns using Gas Chromatography-Mass Spectroscopy. 16HBE cells were seeded at a density of 250,000 cells per dish in a 60 mm cell culture dish and incubated until they reached 90% confluency. During this period, feeding media was replaced every 48 h. Once confluent, the media was aspirated, cells were washed with 1× PBS, and incubated with 2 mL 0 or 10 mM NAC for 2 h. […] At 8 h, the feeding medium from each plate was collected, centrifuged at 1000 rpm for 5 min to remove any cell debris, and frozen at −80° C., until further analysis. The cells were washed twice with 1× PBS, re-suspended by gentle scraping in 1 mL chilled 50% methanol solution, cell lysate collected in centrifuge tubes, flash frozen using liquid nitrogen, and stored at −80° C. till analysis.
MEM and stock solution of 4 mM GLN-10 mM D-[U^13C]-GLC medium treated in an identical manner were used as controls.
Cell suspensions frozen in 50% methanol were thawed and subjected to three additional freeze-thaw cycles using liquid nitrogen and a water bath. Subsequently, the cell suspensions were centrifuged at 14,000 rpm for 10 min to remove cell debris, and the supernatants were transferred to individually labeled glass drying tubes. 10 μl of an internal standard (50 nmols of sodium 2-oxobutyrate) was added to each tube at this time, and the samples were air-dried on a heat block. The dried samples were derivatized by addition of 100 μl of Tri-sil HTP reagent (Thermo Scientific) to each tube, capping the tube, vortexing the samples, and placing them on the heat block for an additional 30 min. The derivatized samples were transferred to auto-injector vials and analyzed using gas chromatography-mass spectroscopy (GC-MS; Agilent Technologies, Santa Clara, Calif.). Separately, the cell pellets with residual cell lysate was collected, contents thoroughly mixed with 200 μL 0.1 N sodium hydroxide, and heated to 100° C. to extract and solubilize the proteins. The samples were cooled and analyzed using a standard BCA assay to quantify the protein content. All metabolite concentrations determined using the BioProfile Basic-4 analyzer (NOVA) and GC-MS were normalized with the protein content.

For data set [5], the system named is 16HBE cells. The data set is described as follows: ATP content (ATP determination kit). It is filed as cell-based, human. Particulars: 10 mM NAC pre-incubation, silver acetate 8 h, vs cells exposed to silver alone.
Protocol: 50,000 16HBE cells were seeded in each well of a 96-well plate and the cells were allowed to attach. At 24 h, media was aspirated, and cells were pre-incubated with 80 μL of 0 or 10 mM concentrations of NAC for 2 h. […] Finally, the cell lysate was collected and the ATP concentration determined and correlated to an established standard curve. Briefly, a standard reaction mixture consisting of molecular grade water, reaction buffer, Dithiothreitol (DTT) solution, D-luciferin, and firefly luciferase at manufacturer recommended concentrations was prepared. Next, 10 μL of standard ATP solution or cell lysate was mixed with 90 μL standard reaction mixture in a 96-well white bottom plate and luminescence was measured at 560 nm. Background luminescence was subtracted from all readings and the data were normalized to drug free controls.
Data set [6] concerns 31 P. aeruginosa isolates. The data set is described as follows: MIC90/MBC90 over expanded isolate panel. It is filed as cell-based, Pseudomonas aeruginosa.
Setting [7] is: 50 μg/mL silver acetate after 10 mM antioxidant pre-incubation.

Take `O=C1O[C@H]([C@@H](O)CO)C(O)=C1O` [Ascorbic Acid, ascorbic acid]: in data set [1], the “antioxidant capacity, trolox equivalent” value worked out at 40 fold. For the same compound, the cell survival is 22% with 16HBE cells [2] (setting [7]); “significantly (p<0.05) higher” in the data set with 16HBE cells [2] (7.5 and 10 mM ascorbic acid pre-incubation, up to 100 μg/mL silver acetate).
Turning to `CC(=O)N[C@@H](CS)C(=O)O` [NAC, N-acetyl cysteine], the “effect of NAC pre-incubation itself on superoxide levels” value in data set [3] is recorded as “no effect”. The superoxide levels result was “significantly (p≤0.001) lower” in data set [3] (10 mM NAC pre-incubation, 10, 20, and 50 μg/mL silver acetate, 8 and 24 hours); “significantly (p≤0.01) lower” in data set [3] (NAC pre-incubation, 100 μg/mL silver acetate, 8 hours); “not at 24 hours” in data set [3] (NAC pre-incubation, 100 μg/mL silver acetate, 24 hours). Further, the ROS levels result in data set [3] (10 mM NAC pre-incubation, silver acetate higher than 20 μg/mL, 8 and 24 hours) was “significantly (p≤0.001) lower”. Moreover, the “ROS induced by NAC pre-incubation itself” value in data set [3] (subsides after 8 hours) is “initially induces ROS”. For the same compound, the “lactate levels (GC-MS)” value with 16HBE cells [4] (NAC pre-incubated cells, 50 μg/mL silver acetate only) was “significantly higher”. Further, the “citrate, glutamate, fumarate, and malate levels” value with 16HBE cells [4] (NAC pre-incubated cells, 30, 40, 50, and 75 μg/mL silver acetate) is recorded as “significantly (p≤0.05) higher”. The aspartate levels entry in the data set with 16HBE cells [4] (NAC pre-incubated cells, 50 and 75 μg/mL silver acetate) is “significantly (p≤0.05) higher”. Also, the “glucose consumption and lactate production” value in the data set on 16HBE cells [4] (cells pre-treated with 0 vs 10 mM NAC) is given as “No significant difference”. The “labeling patterns of key metabolites” value with 16HBE cells [4] (pre-incubation with NAC) is reported as “does not appreciably alter”. Also, the ATP production result with 16HBE cells [5] is “significantly higher”. The same compound yielded a cell survival in the data set with 16HBE cells [2] (setting [7]) of 86%.
The compound `CC(C)Cc1ccc(C(C)C(=O)O)cc1.[Ag]` (stereo not drawn) [Silver Ibuprofen, silver salt of ibuprofen] gave an MBC90 in data set [6] (concentration required to eradicate 90% of 31 P. aeruginosa isolates) of 4 µg/mL. Besides, the MIC90 – broadly, an inhibitory concentration at the 90% level, which refers to growth in some studies and to a panel of isolates in others – in data set [6] (concentration required to inhibit 90% of 31 P. aeruginosa isolates) came out at 4 µg/mL.
